From patent US11643385B2, “Polymorphic forms of RAD1901-2HCl” (RADIUS PHARMACEUTICALS, INC., priority 2018, dated 2023)
Marks after values point to notes of the source that are not given here.

Test: Solubility assessment and polymorph screen on Sample 1 (Form 1) of RAD1901-2HCl in 24 solvent systems
Type: physicochemical
Settings: 25 mg Sample 1; 10 vol. solvent (solvent per sample ID); stirred 25° C., shaken 50° C.
Method: Solubility assessment was carried out on the Sample 1 of RAD1901-2HCl (majorly Form 1 shown by XRPD) in 24 solvent systems in HPLC vials (sample IDs: A1 to A24). RAD1901-2HCl (25 mg) was treated with increasing volumes of solvent until the material fully dissolved or until a maximum of 60 vol had been used (Table 13).
After each addition of solvent, the system was stirred for 5 to 10 minutes at 25° C., then shaken at 50° C. for 5 to 10 minutes, and observations made. Samples were allowed to stand at room temperature for 5 min before the addition of a new aliquot of solvent. After the assessment was completed, the suspensions obtained were matured (maturation) and the clear solutions were cooled (cooling) and slowly evaporated (evaporation) as described below. All solids recovered from maturation, cooling and evaporation experiments were analyzed by high resolution XRPD.
The suspensions obtained during the solubility assessment were matured by shaken in a maturation chamber between 50° C. and RT (8 hr per cycle) for up to 5 days. Then the mixture was allowed to stand at room temperature for 10 minutes. The resulting solids were filtered and air dried and analyzed by XRPD. The clear solutions obtained during maturation were evaporated in ambient conditions and the resulting residues were analyzed by XRPD.
The clear solutions obtained during the course of the solubility assessment were cooled on a Polar Bear device from 50° C. to 5° C. at 0.1° C./min. Solids obtained upon cooling were recovered from the vials, air dried and analyzed by XRPD. If no solid was obtained, the solutions were evaporated slowly through a needle inserted into the septum cap of the vial until a solid appeared at ambient conditions and the resulting solids were filtered, air dried and analyzed by XRPD.

For `CCNCCc1ccc(CN(CC)c2cc(OC)ccc2[C@@H]2CCc3cc(O)ccc3C2)cc1.Cl.Cl` [Form A1], which “Solubility observation at 10 vol.” value is on record?
Its value is “X (X = suspension)”.

For `CCNCCc1ccc(CN(CC)c2cc(OC)ccc2[C@@H]2CCc3cc(O)ccc3C2)cc1.Cl.Cl` [Form A2], which “Solubility observation at 10 vol.” value is on record?
The value was “X (X = suspension)”.

Which “Solubility observation at 10 vol.” value does the source give for `CCNCCc1ccc(CN(CC)c2cc(OC)ccc2[C@@H]2CCc3cc(O)ccc3C2)cc1.Cl.Cl` [Form A3] here?
The value was “X (X = suspension)”.

Which “Solubility observation at 10 vol.” value does the source give for `CCNCCc1ccc(CN(CC)c2cc(OC)ccc2[C@@H]2CCc3cc(O)ccc3C2)cc1.Cl.Cl` [Form A4] here?
Its value is “X (X = suspension)”.

For `CCNCCc1ccc(CN(CC)c2cc(OC)ccc2[C@@H]2CCc3cc(O)ccc3C2)cc1.Cl.Cl` [Form A5], which “Solubility observation at 10 vol.” value is on record?
Its value is “X (X = suspension)”.

With `CCNCCc1ccc(CN(CC)c2cc(OC)ccc2[C@@H]2CCc3cc(O)ccc3C2)cc1.Cl.Cl` [Form A6] as the compound, how does the “Solubility observation at 10 vol.” value read?
Its value is “X (X = suspension)”.

Which “Solubility observation at 10 vol.” value does the source give for `CCNCCc1ccc(CN(CC)c2cc(OC)ccc2[C@@H]2CCc3cc(O)ccc3C2)cc1.Cl.Cl` [Form A7] here?
Its value is “X (X = suspension)”.

Which “Solubility observation at 10 vol.” value does the source give for `CCNCCc1ccc(CN(CC)c2cc(OC)ccc2[C@@H]2CCc3cc(O)ccc3C2)cc1.Cl.Cl` [Form A8] here?
Its value is “X (X = suspension)”.

With `CCNCCc1ccc(CN(CC)c2cc(OC)ccc2[C@@H]2CCc3cc(O)ccc3C2)cc1.Cl.Cl` [Form A10] as the compound, how does the “Solubility observation at 10 vol.” value read?
The value was “X (X = suspension)”.

With `CCNCCc1ccc(CN(CC)c2cc(OC)ccc2[C@@H]2CCc3cc(O)ccc3C2)cc1.Cl.Cl` [Form A11] as the compound, how does the “Solubility observation at 10 vol.” value read?
The value was “S (S = solution)”.

Same assay, conditions: 20 vol. solvent (solvent per sample ID)

Which “Solubility observation at 20 vol.” value does the source give for `CCNCCc1ccc(CN(CC)c2cc(OC)ccc2[C@@H]2CCc3cc(O)ccc3C2)cc1.Cl.Cl` [Form A1] here?
The value was “X (X = suspension)”.

Which “Solubility observation at 20 vol.” value does the source give for `CCNCCc1ccc(CN(CC)c2cc(OC)ccc2[C@@H]2CCc3cc(O)ccc3C2)cc1.Cl.Cl` [Form A2] here?
The value was “X (X = suspension)”.

Which “Solubility observation at 20 vol.” value does the source give for `CCNCCc1ccc(CN(CC)c2cc(OC)ccc2[C@@H]2CCc3cc(O)ccc3C2)cc1.Cl.Cl` [Form A3] here?
Its value is “X (X = suspension)”.

Which “Solubility observation at 20 vol.” value does the source give for `CCNCCc1ccc(CN(CC)c2cc(OC)ccc2[C@@H]2CCc3cc(O)ccc3C2)cc1.Cl.Cl` [Form A4] here?
Its value is “X (X = suspension)”.

For `CCNCCc1ccc(CN(CC)c2cc(OC)ccc2[C@@H]2CCc3cc(O)ccc3C2)cc1.Cl.Cl` [Form A5], which “Solubility observation at 20 vol.” value is on record?
The value was “X (X = suspension)”.

For `CCNCCc1ccc(CN(CC)c2cc(OC)ccc2[C@@H]2CCc3cc(O)ccc3C2)cc1.Cl.Cl` [Form A6], which “Solubility observation at 20 vol.” value is on record?
The value was “X (X = suspension)”.

For `CCNCCc1ccc(CN(CC)c2cc(OC)ccc2[C@@H]2CCc3cc(O)ccc3C2)cc1.Cl.Cl` [Form A7], which “Solubility observation at 20 vol.” value is on record?
Its value is “X (X = suspension)”.

For `CCNCCc1ccc(CN(CC)c2cc(OC)ccc2[C@@H]2CCc3cc(O)ccc3C2)cc1.Cl.Cl` [Form A8], which “Solubility observation at 20 vol.” value is on record?
Its value is “X (X = suspension)”.

With `CCNCCc1ccc(CN(CC)c2cc(OC)ccc2[C@@H]2CCc3cc(O)ccc3C2)cc1.Cl.Cl` [Form A10] as the compound, how does the “Solubility observation at 20 vol.” value read?
The value was “X (X = suspension)”.

Same assay, conditions: 40 vol. solvent (solvent per sample ID)

For `CCNCCc1ccc(CN(CC)c2cc(OC)ccc2[C@@H]2CCc3cc(O)ccc3C2)cc1.Cl.Cl` [Form A1], which “Solubility observation at 40 vol.” value is on record?
Its value is “X (X = suspension)”.

Which “Solubility observation at 40 vol.” value does the source give for `CCNCCc1ccc(CN(CC)c2cc(OC)ccc2[C@@H]2CCc3cc(O)ccc3C2)cc1.Cl.Cl` [Form A2] here?
Its value is “X (X = suspension)”.

Which “Solubility observation at 40 vol.” value does the source give for `CCNCCc1ccc(CN(CC)c2cc(OC)ccc2[C@@H]2CCc3cc(O)ccc3C2)cc1.Cl.Cl` [Form A3] here?
The value was “X (X = suspension)”.

For `CCNCCc1ccc(CN(CC)c2cc(OC)ccc2[C@@H]2CCc3cc(O)ccc3C2)cc1.Cl.Cl` [Form A4], which “Solubility observation at 40 vol.” value is on record?
Its value is “X (X = suspension)”.

With `CCNCCc1ccc(CN(CC)c2cc(OC)ccc2[C@@H]2CCc3cc(O)ccc3C2)cc1.Cl.Cl` [Form A5] as the compound, how does the “Solubility observation at 40 vol.” value read?
Its value is “X (X = suspension)”.

For `CCNCCc1ccc(CN(CC)c2cc(OC)ccc2[C@@H]2CCc3cc(O)ccc3C2)cc1.Cl.Cl` [Form A6], which “Solubility observation at 40 vol.” value is on record?
Its value is “X (X = suspension)”.

Which “Solubility observation at 40 vol.” value does the source give for `CCNCCc1ccc(CN(CC)c2cc(OC)ccc2[C@@H]2CCc3cc(O)ccc3C2)cc1.Cl.Cl` [Form A7] here?
Its value is “X (X = suspension)”.

With `CCNCCc1ccc(CN(CC)c2cc(OC)ccc2[C@@H]2CCc3cc(O)ccc3C2)cc1.Cl.Cl` [Form A8] as the compound, how does the “Solubility observation at 40 vol.” value read?
The value was “X (X = suspension)”.

For `CCNCCc1ccc(CN(CC)c2cc(OC)ccc2[C@@H]2CCc3cc(O)ccc3C2)cc1.Cl.Cl` [Form A10], which “Solubility observation at 40 vol.” value is on record?
Its value is “X (X = suspension)”.

Same assay, conditions: 60 vol. solvent (solvent per sample ID)

Which “Solubility observation at 60 vol.” value does the source give for `CCNCCc1ccc(CN(CC)c2cc(OC)ccc2[C@@H]2CCc3cc(O)ccc3C2)cc1.Cl.Cl` [Form A1] here?
The value was “X (X = suspension)”.

Which “Solubility observation at 60 vol.” value does the source give for `CCNCCc1ccc(CN(CC)c2cc(OC)ccc2[C@@H]2CCc3cc(O)ccc3C2)cc1.Cl.Cl` [Form A2] here?
Its value is “X (X = suspension)”.

With `CCNCCc1ccc(CN(CC)c2cc(OC)ccc2[C@@H]2CCc3cc(O)ccc3C2)cc1.Cl.Cl` [Form A3] as the compound, how does the “Solubility observation at 60 vol.” value read?
Its value is “X (X = suspension)”.

With `CCNCCc1ccc(CN(CC)c2cc(OC)ccc2[C@@H]2CCc3cc(O)ccc3C2)cc1.Cl.Cl` [Form A4] as the compound, how does the “Solubility observation at 60 vol.” value read?
Its value is “X (X = suspension)”.

Which “Solubility observation at 60 vol.” value does the source give for `CCNCCc1ccc(CN(CC)c2cc(OC)ccc2[C@@H]2CCc3cc(O)ccc3C2)cc1.Cl.Cl` [Form A5] here?
Its value is “X (X = suspension)”.

For `CCNCCc1ccc(CN(CC)c2cc(OC)ccc2[C@@H]2CCc3cc(O)ccc3C2)cc1.Cl.Cl` [Form A6], which “Solubility observation at 60 vol.” value is on record?
Its value is “X (X = suspension)”.

For `CCNCCc1ccc(CN(CC)c2cc(OC)ccc2[C@@H]2CCc3cc(O)ccc3C2)cc1.Cl.Cl` [Form A7], which “Solubility observation at 60 vol.” value is on record?
Its value is “X (X = suspension)”.

For `CCNCCc1ccc(CN(CC)c2cc(OC)ccc2[C@@H]2CCc3cc(O)ccc3C2)cc1.Cl.Cl` [Form A8], which “Solubility observation at 60 vol.” value is on record?
Its value is “X (X = suspension)”.

With `CCNCCc1ccc(CN(CC)c2cc(OC)ccc2[C@@H]2CCc3cc(O)ccc3C2)cc1.Cl.Cl` [Form A10] as the compound, how does the “Solubility observation at 60 vol.” value read?
The value was “X (X = suspension)”.

Same assay, conditions: clear solutions cooled 50° C. to 5° C. at 0.1° C./min

For `CCNCCc1ccc(CN(CC)c2cc(OC)ccc2[C@@H]2CCc3cc(O)ccc3C2)cc1.Cl.Cl` [Form A11], which “Observation after Cooled to 5° C.” value is on record?
Its value is “S”.

Same assay, conditions: slow evaporation at ambient conditions

For `CCNCCc1ccc(CN(CC)c2cc(OC)ccc2[C@@H]2CCc3cc(O)ccc3C2)cc1.Cl.Cl` [Form A11], which “Observation after Evaporation” value is on record?
The value was “S”.

Same assay, conditions: solid recovered after maturation, cooling or evaporation

Which “XRPD of recovered solid (form)” value does the source give for `CCNCCc1ccc(CN(CC)c2cc(OC)ccc2[C@@H]2CCc3cc(O)ccc3C2)cc1.Cl.Cl` [Form A1] here?
Its value is “Form 1”.

For `CCNCCc1ccc(CN(CC)c2cc(OC)ccc2[C@@H]2CCc3cc(O)ccc3C2)cc1.Cl.Cl` [Form A2], which “XRPD of recovered solid (form)” value is on record?
Its value is “Form 1”.

With `CCNCCc1ccc(CN(CC)c2cc(OC)ccc2[C@@H]2CCc3cc(O)ccc3C2)cc1.Cl.Cl` [Form A3] as the compound, how does the “XRPD of recovered solid (form)” value read?
Its value is “Form 1”.

Which “XRPD of recovered solid (form)” value does the source give for `CCNCCc1ccc(CN(CC)c2cc(OC)ccc2[C@@H]2CCc3cc(O)ccc3C2)cc1.Cl.Cl` [Form A4] here?
The value was “Form 1”.

Which “XRPD of recovered solid (form)” value does the source give for `CCNCCc1ccc(CN(CC)c2cc(OC)ccc2[C@@H]2CCc3cc(O)ccc3C2)cc1.Cl.Cl` [Form A5] here?
The value was “Form 1”.

Which “XRPD of recovered solid (form)” value does the source give for `CCNCCc1ccc(CN(CC)c2cc(OC)ccc2[C@@H]2CCc3cc(O)ccc3C2)cc1.Cl.Cl` [Form A6] here?
The value was “Form 3*”.

For `CCNCCc1ccc(CN(CC)c2cc(OC)ccc2[C@@H]2CCc3cc(O)ccc3C2)cc1.Cl.Cl` [Form A7], which “XRPD of recovered solid (form)” value is on record?
Its value is “Form 1*”.

Which “XRPD of recovered solid (form)” value does the source give for `CCNCCc1ccc(CN(CC)c2cc(OC)ccc2[C@@H]2CCc3cc(O)ccc3C2)cc1.Cl.Cl` [Form A8] here?
The value was “Form 1”.

Which “XRPD of recovered solid (form)” value does the source give for `CCNCCc1ccc(CN(CC)c2cc(OC)ccc2[C@@H]2CCc3cc(O)ccc3C2)cc1.Cl.Cl` [Form A10] here?
Its value is “Form 1”.
